Source: patent US12421211B2, “Heterocyclic compounds” (Hoffmann-La Roche Inc., priority 2021, dated 2025)
Where a name gives a salt, the structure may show the parent alone.

tested on: Acinetobacter baumannii ATCC17961; test: Antimicrobial susceptibility testing: 90% growth inhibitory concentration (IC90) determination; type: cell-based; conditions: Acinetobacter baumannii, ATCC17961, 16 h, 90% growth inhibitory concentration, Acinetobacter baumannii ATCC17961, Iso-Sensitest broth, OD 600 nm over 16 h; read-out: ATCC 17961 IC90
In short: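 A. baumannii ATCC17961 at ~5×10^5 CFU/ml in Iso-Sensitest broth exposed to 10-point twofold dilutions (e.g. 50–0.097 μM final), 35±2° C. OD600 read every 20 minutes over 16h; IC50 and IC90 derived from inhibition during logarithmic growth.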

Point of comparison: `COCCn1ncc(-c2ccc(-c3cnc(C(=O)Nc4ccc(C(=O)N5CCN(C(=O)CN(C)C)CC5)c(C)c4)n3C)cc2)c1C` [Example E14, N-[4-[4-[2-(dimethylamino)acetyl]piperazine-1-carbonyl]-3-methyl-phenyl]-5-[4-[1-(2-methoxyethyl)-5-methyl-pyrazol-4-yl]phenyl]-1-methyl-imidazole-2-carboxamide], IC90 270 nM. Against it:
- Cc1nn(CC(=O)Nc2cnn(C)c2)cc1-c1ccc(-c2cnc(C(=O)Nc3ccc(C(=O)N4CCN(C(=O)C5CC[N+](C)(C)CC5)CC4)c(Cl)c3)n2C)c(F)c1F [Example G12, N-[3-chloro-4-[4-(1,1-dimethylpiperidin-1-ium-4-carbonyl)piperazine-1-carbonyl]phenyl]-5-[2,3-difluoro-4-[3-methyl-1-[2-[(1-methylpyrazol-4-yl)amino]-2-oxo-ethyl]pyrazol-4-yl]phenyl]-1-methyl-imidazole-2-carboxamide; formate] — 1.7-fold higher, 450 nM
- Cc1nn(CC(=O)N2CCCCC2)cc1-c1ccc(-c2cnc(C(=O)Nc3ccc(C(=O)N4CCN(C(=O)C5CC[N+](C)(C)CC5)CC4)c(Cl)c3)n2C)c(F)c1F [Example G29, N-[3-chloro-4-[4-(1,1-dimethylpiperidin-1-ium-4-carbonyl)piperazine-1-carbonyl]phenyl]-5-[2,3-difluoro-4-[3-methyl-1-[2-oxo-2-(1-piperidyl)ethyl]pyrazol-4-yl]phenyl]-1-methyl-imidazole-2-carboxamide; formate] — within 1.5-fold, 330 nM
- Cc1n[nH]cc1-c1ccc(-c2cnc(C(=O)Nc3ccc(C(=O)N4CCN(C(=O)C5CC[N+](C)(CC6CNC6)CC5)CC4)c(Cl)c3)n2C)c(F)c1F (stereo not shown) [Example J1, N-[4-[4-[1-(azetidin-3-ylmethyl)-1-methyl-piperidin-1-ium-4-carbonyl]piperazine-1-carbonyl]-3-chloro-phenyl]-5-[2,3-difluoro-4-(3-methyl-1H-pyrazol-4-yl)phenyl]-1-methyl-imidazole-2-carboxamide; formate] — 12-fold lower, 22 nM
- Cc1nn(CC(=O)NC2CCCCC2)cc1-c1ccc(-c2cnc(C(=O)Nc3ccc(C(=O)N4CCN(C(=O)C5CC[N+](C)(C)CC5)CC4)c(Cl)c3)n2C)c(F)c1F [Example G9, N-[3-chloro-4-[4-(1,1-dimethylpiperidin-1-ium-4-carbonyl)piperazine-1-carbonyl]phenyl]-5-[4-[1-[2-(cyclohexylamino)-2-oxo-ethyl]-3-methyl-pyrazol-4-yl]-2,3-difluoro-phenyl]-1-methyl-imidazole-2-carboxamide; formate] — within 1.5-fold, 210 nM
- COCCn1ncc(-c2ccc(-c3cnc(C(=O)Nc4ccc(C(=O)N5CCC(C(=O)N6CC[N+](C)(CC(N)=O)CC6)CC5)c(Cl)c4)n3C)c(F)c2F)c1C [Example B15, N-[4-[4-[4-(2-amino-2-oxo-ethyl)-4-methyl-piperazin-4-ium-1-carbonyl]piperidine-1-carbonyl]-3-chloro-phenyl]-5-[2,3-difluoro-4-[1-(2-methoxyethyl)-5-methyl-pyrazol-4-yl]phenyl]-1-methyl-imidazole-2-carboxamide; formate] — 1.6-fold lower, 170 nM
- COCCCn1cc(-c2ccc(-c3cnc(C(=O)Nc4ccc(C(=O)N5CCN(C(=O)[C@@H]6C[C@@H](O)C[N+]6(C)C)CC5)c(Cl)c4)n3C)c(F)c2F)c(C)n1 [Example D11, N-[3-chloro-4-[4-[(2S,4R)-4-hydroxy-1,1-dimethyl-pyrrolidin-1-ium-2-carbonyl]piperazine-1-carbonyl]phenyl]-5-[2,3-difluoro-4-[1-(3-methoxypropyl)-3-methyl-pyrazol-4-yl]phenyl]-1-methyl-imidazole-2-carboxamide; formate] — the same, 270 nM
- Cc1nn(CC(=O)NC23CC(C2)C3)cc1-c1ccc(-c2cnc(C(=O)Nc3ccc(C(=O)N4CCN(C(=O)C5CC[N+](C)(C)CC5)CC4)c(Cl)c3)n2C)c(F)c1F [Example G3, 5-[4-[1-[2-(1-bicyclo[1.1.1]pentanylamino)-2-oxo-ethyl]-3-methyl-pyrazol-4-yl]-2,3-difluoro-phenyl]-N-[3-chloro-4-[4-(1,1-dimethylpiperidin-1-ium-4-carbonyl)piperazine-1-carbonyl]phenyl]-1-methyl-imidazole-2-carboxamide; formate] — 2.7-fold lower, 100 nM
- Cc1nn(-c2cn[nH]c2)cc1-c1ccc(-c2cnc(C(=O)Nc3ccc(C(=O)N4CCN(C(=O)C5CC[N+](C)(C)CC5)CC4)c(Cl)c3)n2C)c(F)c1F [Example F42, N-[3-chloro-4-[4-(1,1-dimethylpiperidin-1-ium-4-carbonyl)piperazine-1-carbonyl]phenyl]-5-[2,3-difluoro-4-[3-methyl-1-(1H-pyrazol-4-yl)pyrazol-4-yl]phenyl]-1-methyl-imidazole-2-carboxamide; formate] — within 1.5-fold, 210 nM
- Cc1n[nH]cc1-c1ccc(-c2cnc(C(=O)Nc3ccc(C(=O)N4CCN(C(=O)C5CC[N+](C)(C)CC5)CC4)c(Cl)c3)n2C)c(F)c1F [Example D16, N-[3-chloro-4-[4-(1,1-dimethylpiperidin-1-ium-4-carbonyl)piperazine-1-carbonyl]phenyl]-5-[2,3-difluoro-4-(3-methyl-1H-pyrazol-4-yl)phenyl]-1-methyl-imidazole-2-carboxamide; formate] — 1.8-fold lower, 150 nM
- COc1cccc(CCn2cc(-c3ccc(-c4cnc(C(=O)Nc5ccc(C(=O)N6CCN(C(=O)C7CC[N+](C)(C)CC7)CC6)c(Cl)c5)n4C)c(F)c3F)c(C)n2)n1 [Example F54, N-[3-chloro-4-[4-(1,1-dimethylpiperidin-1-ium-4-carbonyl)piperazine-1-carbonyl]phenyl]-5-[2,3-difluoro-4-[1-[2-(6-methoxy-2-pyridyl)ethyl]-3-methyl-pyrazol-4-yl]phenyl]-1-methyl-imidazole-2-carboxamide; formate] — 2.2-fold higher, 590 nM
- COCCn1ncc(-c2ccc(-c3cnc(C(=O)Nc4ccc(C(=O)N5CCN(C(=O)C[N+]6(C)CCCC6)CC5)c(Cl)c4)n3C)c(F)c2F)c1C [Example C14, N-[3-chloro-4-[4-[2-(1-methylpyrrolidin-1-ium-1-yl)acetyl]piperazine-1-carbonyl]phenyl]-5-[2,3-difluoro-4-[1-(2-methoxyethyl)-5-methyl-pyrazol-4-yl]phenyl]-1-methyl-imidazole-2-carboxamide; 2,2,2-trifluoroacetate] — 3.3-fold lower, 82 nM
- COCCn1ncc(-c2ccc(-c3cnc(C(=O)Nc4ccc(C(=O)N5CCN(C(=O)C6CCNCC6)CC5)c(Cl)c4)n3C)c(F)c2F)c1C [Example E11, N-[3-chloro-4-[4-(piperidine-4-carbonyl)piperazine-1-carbonyl]phenyl]-5-[2,3-difluoro-4-[1-(2-methoxyethyl)-5-methyl-pyrazol-4-yl]phenyl]-1-methyl-imidazole-2-carboxamide; 2,2,2-trifluoroacetic acid] — 4.4-fold lower, 61 nM
- Cc1nn(CCNS(=O)(=O)c2ccc(F)cc2)cc1-c1ccc(-c2cnc(C(=O)Nc3ccc(C(=O)N4CCN(C(=O)C5CC[N+](C)(C)CC5)CC4)c(Cl)c3)n2C)c(F)c1F [Example H3, N-[3-chloro-4-[4-(1,1-dimethylpiperidin-1-ium-4-carbonyl)piperazine-1-carbonyl]phenyl]-5-[2,3-difluoro-4-[1-[2-[(4-fluorophenyl)sulfonylamino]ethyl]-3-methyl-pyrazol-4-yl]phenyl]-1-methyl-imidazole-2-carboxamide; formate] — 1.5-fold lower, 180 nM
- COc1ccccc1NC(=O)Cn1cc(-c2ccc(-c3cnc(C(=O)Nc4ccc(C(=O)N5CCN(C(=O)C6CC[N+](C)(C)CC6)CC5)c(Cl)c4)n3C)c(F)c2F)c(C)n1 [Example G7, N-[3-chloro-4-[4-(1,1-dimethylpiperidin-1-ium-4-carbonyl)piperazine-1-carbonyl]phenyl]-5-[2,3-difluoro-4-[1-[2-(2-methoxyanilino)-2-oxo-ethyl]-3-methyl-pyrazol-4-yl]phenyl]-1-methyl-imidazole-2-carboxamide; formate] — 2-fold higher, 550 nM
- COCCn1ncc(-c2ccc(-c3cnc(C(=O)Nc4ccc(C(=O)N5CCN(C(=O)C6CC[N+](C)(C)CC6)CC5)c(Cl)c4)n3C)c(F)c2F)c1Cl [Example F31, N-[3-chloro-4-[4-(1,1-dimethylpiperidin-1-ium-4-carbonyl)piperazine-1-carbonyl]phenyl]-5-[4-[5-chloro-1-(2-methoxyethyl)pyrazol-4-yl]-2,3-difluoro-phenyl]-1-methyl-imidazole-2-carboxamide; formate] — 4-fold lower, 67 nM
- Cc1n[nH]c(C)c1-c1ccc(-c2cnc(C(=O)Nc3ccc(C(=O)N4CCN(C(=O)CN(C)C)CC4)c(Cl)c3)n2C)cc1 [Example E16, N-[3-chloro-4-[4-[2-(dimethylamino)acetyl]piperazine-1-carbonyl]phenyl]-5-[4-(3,5-dimethyl-1H-pyrazol-4-yl)phenyl]-1-methyl-imidazole-2-carboxamide] — within 1.5-fold, 230 nM
- COCCn1ncc(-c2ccc(-c3cnc(C(=O)Nc4ccc(C(=O)N5CCN(C(=O)C6CC[N+](C)(C)CC6)CC5)c(Cl)c4)n3C)c(OC)c2F)c1C [Example F23, N-[3-chloro-4-[4-(1,1-dimethylpiperidin-1-ium-4-carbonyl)piperazine-1-carbonyl]phenyl]-5-[3-fluoro-2-methoxy-4-[1-(2-methoxyethyl)-5-methyl-pyrazol-4-yl]phenyl]-1-methyl-imidazole-2-carboxamide; formate] — 2.8-fold higher, 750 nM

same assay, conditions: Acinetobacter baumannii, ATCC17961, 16 h, read-out: ATCC 17961 IC90

`Cc1nn(CC(=O)Nc2ccc(N3CCOCC3)nn2)cc1-c1ccc(-c2cnc(C(=O)Nc3ccc(C(=O)N4CCN(C(=O)C5CC[N+](C)(C)CC5)CC4)c(Cl)c3)n2C)c(F)c1F` [Example L5, N-[3-chloro-4-[4-(1,1-dimethylpiperidin-1-ium-4-carbonyl)piperazine-1-carbonyl]phenyl]-5-[2,3-difluoro-4-[3-methyl-1-[2-[(6-morpholinopyridazin-3-yl)amino]-2-oxo-ethyl]pyrazol-4-yl]phenyl]-1-methyl-imidazole-2-carboxamide; formate] showed an IC90 of 374 nM.
